Where two headings read alike, the source gives them in different places.
What was measured:
[1] = Single dose study: pharmacokinetics of pirfenidone, fasted versus fed; assay type: in vivo; conditions: human, plasma, 801 mg; for half-life: oral, read-out: mean absorption half life (t1/2, abs) (converted)
Description: (§1) A study was designed to evaluate the effect of food, antacids, and food taken with antacids on adverse events associated with pirfenidone use. The trial was conducted as a randomized, open-label, four-treatment crossover, with a single dose for each treatment period and a 2-day washout period between study treatments. 16 healthy adults between the ages of 50 and 79 years having body mass indices between 18 and 30 (inclusive) were enrolled and completed all 4 treatment arms. The treatment arms were as follows:
(§2) A) pirfenidone alone (Fasted);
(§3) B) pirfenidone within 1 minute following a dose of antacid (20 mL Mylanta® Maximum Strength Liquid) (Fasted+Antacid);
(§4) C) pirfenidone 5 minutes after completing a standard meal (Fed); and
(§5) D) pirfenidone 5 minutes after completing a standard meal, then within 1 minute, followed by a dose of antacid (Fed+Antacid).
(§6) All subjects were admitted to the clinic for clinical evaluation the day prior to receiving the first dose of the study medication and remained confined for 13 days. Following an overnight fast of at least 10 hours (h), subjects were randomized to one of the above-described 4 treatment sequences. Each dose of pirfenidone (3×267 mg capsules) was administered orally with 240 mL room temperature water on days 1, 4, 7, and 10 in the morning, following an overnight fast of at least 10 hours. The washout period between treatments was 2 days. A standard meal consisted of 2 fried eggs, 2 strips of bacon, 2 slices of toast, 2 pats of butter, hash brown potatoes (4 oz), and whole milk (8 oz).
Of 7 subjects who reported nausea, 5 of 16 (31%) were fasted compared to only 2 of 16 (13%) fed subjects. Of 5 subjects reporting dizziness, 4 of 16 (25%) were fasted, while only 1 of 16 (6%) was fed. Of 3 subjects reporting somnolence, 2 of 16 (13%) were fasted and 1 of 16 (6%) were fed. Of 3 subjects reporting headaches, 2 of 16 (13%) were fasted and 1 of 16 (6%) were fed.

[2] = Single dose study: adverse events with food, antacid, or food plus antacid; assay type: in vivo, human; conditions: for dizziness incidence / nausea incidence / somnolence incidence / headache incidence: of 16 subjects
Description: as §1, §2, §3, §4, §5, §6
On each study day, adverse events were reviewed with the patients as follows. Before administration of the first dose of the study drug, study site personnel noted the occurrence and nature of each subject's medical condition(s). During the trial, site personnel again noted any change in the condition(s) or occurrence and nature of any adverse events. The severity of adverse events were graded based on the Modified Common Toxicity Criteria and the relationship of the study drug to the adverse event determined.

[3] = Multiple dose study: adverse events on multiple ascending daily doses taken with food; assay type: in vivo, human
Description: A second study was designed to examine incidences of adverse events on multiple ascending daily doses of pirfenidone. The trial was conducted as an open-label, escalating-dose study with no washout period between dose escalations. 25 healthy adults between the ages of 45 and 79 (inclusive) having body mass indices between 18 and 30 (inclusive) were enrolled. 22 adults completed the treatment. Each volunteer received from 801 mg/day to 4005 mg/day of pirfenidone divided into three equal doses as follows:
Days 1-2: 1 capsule three times a day (TID) (801 mg total daily dose (TDD))
Day 3: 1 capsule in the morning (0800) (267 mg TDD)
Days 4-5: 2 capsules TID (1602 mg TDD)
Day 6: 2 capsules in the morning (534 mg TDD)
Days 7-8: 3 capsules TID (2403 mg TDD)
Day 9: 3 capsules in the morning (801 mg TDD)
Day 12: 4 capsules in the morning (1068 mg TDD)
Day 15: 5 capsules in the morning (1335 mg TDD)
All subjects were admitted to the clinic for clinical evaluation the day before the first dose of study medication and remained confined for 17 days. Each subject received all dose levels of the study drug unless adverse events or the clinical judgment of the trial physician precluded the continuation of treatment. All doses were taken with 240 mL room temperature water and with food (excluding grapefruit juice). TID doses times were ˜0800, ˜1200, and ˜1800.

[4] = 801 to 4005 mg/day TID with food, of 25 subjects

Cc1ccc(=O)n(-c2ccccc2)c1 [pirfenidone, 5-methyl-1-phenyl-2-(1H)-pyridone]
half-life ([1]; with food (fed)): ~1.78 h
half-life ([1]; without food (fasted)): ~0.572 h
Cmax ([1]; po, fasted (without food), single oral dose 3x267 mg capsules, healthy adults): 15700 ng/mL
AUC ([1]; po, fasted, single oral dose 3x267 mg capsules): 72700 ng·h/mL
AUC ([1]; po, fed, single oral dose 3x267 mg capsules): 64600 ng·h/mL
dizziness incidence ([2]; all treatment arms): 38%
nausea incidence ([2]; all treatment arms): 44%
somnolence incidence ([2]; all treatment arms): 25%
dizziness incidence ([2]; fasted): 25%
headache incidence ([2]; fasted): 13%
nausea incidence ([2]; fasted): 31%
somnolence incidence ([2]; fasted): 13%
dizziness incidence ([2]; fed): 6%
headache incidence ([2]; fed): 6%
nausea incidence ([2]; fed): 13%
somnolence incidence ([2]; fed): 6%
subjects with at least 1 adverse event ([2]; in total, all treatment arms, 16 subjects): 75%
subjects with adverse events whose adverse events were mild ([2]; of the 12 subjects with at least 1 adverse event): 75%
subjects who experienced an adverse event ([2]; with food (Fed), 16 subjects): 31.3%
subjects who experienced an adverse event ([2]; with food and antacid (Fed+Antacid), 16 subjects): 25%
subjects who experienced an adverse event ([2]; within 1 minute following a dose of antacid (Fasted+Antacid), 16 subjects): 56.3%
subjects who experienced an adverse event ([2]; without food (Fasted), 16 subjects): 56.3%
subjects with at least one adverse event ([3]; 801 to 4005 mg/day TID with food, 25 subjects): 92%
headache incidence [3, 4]: 28%
nausea incidence [3, 4]: 36%
somnolence incidence [3, 4]: 32%
subjects with adverse events whose adverse events were mild ([3]; of the 23 subjects with at least one adverse event): 96%

Source: patent US20110136876A1, “Altering Pharmacokinetics of Pirfenidone Therapy” (INTERMUNE, INC., priority 2007, published 2011)
